# Source: PMC11310889, “Ribosomal translation of fluorinated non-canonical amino acids for de novo biologically active fluorinated macrocyclic peptides” (Chemical Science, 2024)
# Columns and labels:
# Format in all cases: cell-based, Escherichia coli
# E. coli W3110 [1] = test: Scanning electron microscopy of cell morphology; details: E. coli W3110 logarithmic-phase, 4 h treatment at 2 μM and 5 μM (Fig. 5B, S11)
# Protocol: Thaw the previously preserved E. coli W3110 cells from the -80 °C freezer. […]
# Scanning electron microscopy
# Thaw the previously preserved E. coli W3110 cells from the -80°C freezer. Scrape a small amount and inoculate it into 1 mL of LB liquid medium. Incubate overnight in a 37°C shaker. The next day, inoculate the strain into fresh LB liquid medium at a 1:100 ratio and incubate at 37°C until the OD600 reaches approximately 0.47 to 0.53. Take 500 μL of E. coli W3110 cells, centrifuge for 10 min at 4000 rpm, and discard the supernatant. Resuspend the cells in 500 μL of PBS, then centrifuge again at 4000 rpm for 10 min and discard the supernatant. Dissolve various macrocyclic peptides in DMSO and dilute to the required concentration. Resuspend the untreated group in 500 μL of PBS.
# For the peptide treatment group, resuspend in 495 μL of ddH2O, add 5 μL of 0.2 mM or 0.5 mM peptides, mix well, and let react for 4 h.
# After the treament, spot 4 μL of the sample on plates. Perform the first ten-fold dilution and mix, then continue with the second to fifth ten-fold dilutions. Incubate the plates inverted overnight in a 37°C incubator. Scan and count the colonies. For the remaining 492 μL, centrifuge at 6100g for 10 min, discard the supernatant, add 500 μL of ddH2O, and let it stand for 15 min. Centrifuge again at 6100g for 10 min, discard the supernatant, and add 500 μL of ddH2O containing 2.5% glutaraldehyde. Resuspend and fix the cells overnight at 4°C. Centrifuge at 6100g for 10 min, remove the supernatant, and wash twice with ddH2O, letting it stand for 15 min each time, followed by centrifugation at 6100g for 10 min. Discard the supernatant. Dehydrate the sample with ethanol at concentration gradients of 30%, 60%, and 90%, without resuspension, centrifuging at 6100g for […]
# 10 min and discarding the supernatant after each step. Finally, use 100% ethanol, rest for 15 min, centrifuge at 6100g for 10 min, discard the supernatant, and repeat with 100% ethanol, leaving about 10 μL. Then the critical point was dried and sprayed with gold, and the images were observed by […]
# Prediction of binding sites between peptides and the BAM complex
# Firstly, the fpocket algorithm was used, a rapid method for pocket prediction based on the three-dimensional structure of BAM complex (PDB ID: 5AYW). This method establishes a grid surrounding the protein, positioning alpha spheres on grid points devoid of spatial conflicts with protein atoms, subsequently utilizing a clustering algorithm to ascertain whether these regions constitute potential binding pockets. Alpha spheres were designated with radii ranging from 3.4Å to 6.2Å, with a prerequisite of at least 15 alpha spheres for a region to be considered a pocket. […]
# PepNN evaluated each amino acid for its potentiality as a peptide binding site. […]
# E. coli W3110 [2] = test: Propidium iodide (PI) assay of membrane permeability; details: E. coli W3110 logarithmic-phase, 15 min treatment with 5 μM peptide, PI 25 μg/mL 15 min (Fig. 5A)
# Protocol: Propidium Iodide (PI) assay
# Thaw the previously preserved E. coli W3110 cells from the -80 °C freezer. Scrape a small amount and inoculate it into 1 mL of LB liquid medium. Culture overnight in a 37°C shaker. Next day, inoculate the strain into fresh LB liquid medium at a 1:100 ratio and incubate at 37 °C until the OD600 reaches approximately 0.47 to 0.53. Take 100 μL of the E. coli W3110 cells and centrifuge for 2 min at 13,000 rpm. Discard the supernatant. For the untreated group, resuspend the cells in 100 μL of PBS. For the peptide treatment group, resuspend the cells in 99 μL of ddH2O and add 1 […]
# μL of 0.5 mM of the different peptides. Mix thoroughly and let react for 15 min. After the treatment, take 80 μL of each sample and incubate with PI at a final concentration of 25 μg/mL for 15 min.
# After incubation, wash the samples with the same amount of PBS, centrifuge, and resuspend at a 10-fold concentration. Observe the images using a Nikon Eclipse Ci-L Plus microscope. […]
# (§1) Incubate overnight in a 37°C shaker. […]
# Centrifuge again at
# 6100g for 10 min, discard the supernatant, and add 500 μL of ddH2O containing 2.5% glutaraldehyde. Resuspend and fix the cells overnight at 4°C. Centrifuge at 6100g for 10 min, remove the supernatant, and wash twice with ddH2O, letting it stand for 15 min each time, followed by centrifugation at 6100g for 10 min. Discard the supernatant. Dehydrate the sample with ethanol at concentration gradients of 30%, 60%, and 90%, without resuspension, centrifuging at 6100g for […]
# E. coli W3110 [3] = test: Protein leakage assay; details: E. coli W3110, 5 μM peptide, 15 min, pellet analysed by SDS-PAGE, compared to R9-treated sample (Fig. S10)
# Protocol: Thaw the previously preserved E. coli W3110 cells from the -80 °C freezer. Scrape a small amount and inoculate it into 1 mL of LB liquid medium. Incubate overnight in a 37°C shaker. Next day, transfer the culture to fresh LB liquid medium at a 1:100 inoculation ratio and incubate at 37 °C until the OD600 reaches approximately 0.47 to 0.53. Collect 300 μL of the E. coli W3110 cells and centrifuge for 2 min at 13,000 rpm, discarding the supernatant afterward. Resuspend the untreated group in 300 μL of PBS, and the peptide treatment group in 297 μL of ddH2O. Add 3 μL of 0.5 mM different peptides to the treatment group, mix well, and allow to react for 15 min. After the treatment, resuspend all samples in 15 μL of 6×SDS loading buffer and 15 μL of 10% SDS. All samples were heated at 99.9°C for 15 min, followed by 10% SDS-PAGE analysis and staining with Coomassie brilliant blue R250. […]
# as §1
substance,measurement,setting,value
"Ac-DYLIWYSRSHPFRVCGS(Acp)RRRRRRRRR-NH2 (sidechain bridge or staple) [BAM-D1-R9, BAM-D1 conjugated with cell-penetrating peptide R9]",morphological changes by scanning electron microscopy,E. coli W3110 [1],severe damage in the cell shape and even lysis
same,PI red fluorescence (cell membrane permeability),E. coli W3110 [2],notable red fluorescence intensity
same,cellular protein leakage,E. coli W3110 [3],partial cellular protein leakage
